# Measured values taken from US5021423A, “Mitomycin derivatives and intermediates therefor” (Kyowa Hakko Kogyo Kabushiki Kaisha, priority 1988, dated 1991).
# Legend:
# [1] = test system: Streptococcus faecium: Enterococcus faecium ATTC 10541; assay: Anti-bacterial activity, agar dilution method at pH 7.0 (SF); type: cell-based; conditions: pH 7, read-out: minimum growth inhibitory concentration, SF
# Excerpt: (§1) In this table, the microorganisms are abbreviated as follows:
# SF: Streptococcus faecium: Enterococcus faecium
# [2] = test system: Staphylococcus aureus ATCC 6538P; assay: Anti-bacterial activity, agar dilution method at pH 7.0 (SA); type: cell-based; conditions: ATCC6538P, read-out: minimum growth inhibitory concentration, SA
# Excerpt: as §1
# SA: Staphylococcus aureus ATCC 6538P
# [3] = test system: Proteus vulgaris ATCC 6897; assay: Anti-bacterial activity, agar dilution method at pH 7.0 (PV); type: cell-based; conditions: ATCC6897, read-out: minimum growth inhibitory concentration, PV
# Excerpt: as §1
# PV: Proteus vulgaris ATCC 6897
# [4] = test system: Klebsiella pneumoniae ATCC 10031; assay: Anti-bacterial activity, agar dilution method at pH 7.0 (KP); type: cell-based; conditions: ATCC10031, read-out: minimum growth inhibitory concentration, KP
# Excerpt: as §1
# KP: Klebsiella pneumoniae ATCC 10031
# HeLa S3 cells = assay: Inhibition test against the growth of HeLa S3 cells; type: cell-based; conditions: Homo sapiens, 72 hours, neutral red, read-out: IC50 (growth inhibition by 50%)
# Method: Inhibition test against the growth of HeLa S3 cells
# Each 0.1 ml of MEM medium containing 10% foetal calf serum and 2 mM glutamine, which contained 3×10^4 HeLa S3 cells per ml, was put into each well of a 96 well microtitre plate. Without any pre-treatment, the cells were cultured overnight at a temperature of 37° C. in a CO2 incubator.
# On each occasion, 0.05 ml of a test sample which had been suitably diluted was added to the well. After treating with the test compound for 72 hours, the supernatant was removed. After washing once with a PBS (-), a fresh medium (0.1 ml) was added to each well, followed by incubating at a temperature of 37° C. for 2 hours in the incubator.
# After removal of the supernatant, 0.1 ml of a medium containing neutral red (0.02%) was added to each well. The cells were dyed by incubating at a temperature of 37° C. for one hour in the incubator. After removal of the supernatant, followed by washing once with a physiological solution of sodium chloride, the dyestuff was removed from each sample by extraction using a mixture of 0.001N hydrochloric acid and 30% ethanol. A microplate reader was used to measure the absorption at 550 nm. By comparing the absorption of untreated cells with the absorption of the cells treated with the test compound having a pre-determined concentration, a concentration of the test compound capable of inhibiting the growth of the cells by 50% was calculated and designated as IC50.
# Sarcoma 180 solid tumour = assay: Effect against Sarcoma 180 solid tumour; type: in vivo, mice of ddy strain; conditions: Mus musculus, Sarcoma-180, iv, 168 h; male ddy mice, tail vein injection 24 hours after implantation; tumour volume 7 days after implantation; read-out: ED50 (dose reducing the volume of Sarcoma 180 solid tumours by 50%)
# Method: (1) Effect aginast Sarcoma 180 solid tumour:
# 5×10^6 cells of Sarcoma 180 solid tumour cells were abdominally implanted into male mice of ddy strain. 7 days after this, ascites cells were sampled. The ascites cells were washed once with a sterilized physiological solution of sodium chloride and were used to prepare a cell suspension containing 5×10^7 cells per ml. 0.1 ml of the cell suspension was subcutaneously implanted into the right armpit of a male mouse (ddy strain; body weight 20±2 g). 24 hours after the implantation of the tumour cells, the test compound dissolved in a physiological solution of sodium chloride containing Tween 80, was injected into the tail vein of each mouse of a group consisting of 5 animals at a dose of 0.1-0.2 ml. The anti-tumour activity of the test sample was determined as follows:
# 7 days after the implantation, the major axis (a) and the minor axis (b) of the tumour were measured to calculate a value of "a×b^2 /2" which corresponds to the volume of the tumour. The anti-tumour activity was expressed by T/C viz. the ratio of the volume of the tumours (T) of the group of animals administered with the test compound to the corresponding volume of tumours (C) of the untreated animals.
# (2) Determination of ED50 :
# The term ED50 denotes the administered amount needed for reducing the volume of Sarcoma 180 solid tumours in the animals by 50% on the basis of the corresponding volume of Sarcoma 180 solid tumours in the untreated animals. On graph paper, the value T/C was indicated by an arithmetic scale on the longitudinal axis and the administered amount of test compound was indicated by a logarithmic scale on the lateral axis. A straight line indicating the relationship between the dose and T/C was determined by the least squares method from which a dose corresponding to T/C of 0.5 was obtained.
# Acute toxicity = conditions: mouse, in vivo; ddy mice, single intravenous administration, observed for 14 days, Behrens Korber's method
# Method: Each animal of the test group consisting of 5 ddy mice was once administered intravenously with a test compound. […] The LD50 was determined by the Behrens Korber's method.
smiles,measurement,setting,value
CO[C@@]12[C@H](COC(N)=O)C3=C(C(OC(C)=O)=C(C)C4(OCCO4)C3=O)N1C[C@@H]1N[C@@H]12 [Compound 2],MIC,[1],1.3 µg/mL
same,MIC,[2],0.63 µg/mL
same,MIC,[3],1.3 µg/mL
same,MIC,[4],0.16 µg/mL
same,IC50,HeLa S3 cells,0.007 µg/mL
CC(=O)OC1=C(C)C2(OCCO2)C(=O)C2=C1N1C[C@H]3[C@H](N3C)[C@]1(O)[C@H]2COC(N)=O (some centres unmarked) [Compound 3],MIC,[1],50 µg/mL
same,ED50,Sarcoma 180 solid tumour,9.9 mg/kg
same,MIC,[2],13 µg/mL
same,MIC,[3],13 µg/mL
same,MIC,[4],6.3 µg/mL
same,LD50 at 336 h,Acute toxicity,11.3 mg/kg
CO[C@@]12[C@H](COC(N)=O)C3=C(C(OC(=O)c4ccccc4)=C(C)C4(OCCO4)C3=O)N1C[C@@H]1N[C@@H]12 [Compound 5],MIC,[1],1.3 µg/mL
same,MIC,[2],0.31 µg/mL
same,MIC,[3],0.63 µg/mL
same,MIC,[4],1.3 µg/mL
same,IC50,HeLa S3 cells,0.013 µg/mL
CCCCCCCCCCCC(=O)OC1=C(C)C2(OCCO2)C(=O)C2=C1N1C[C@@H]3N[C@@H]3[C@]1(OC)[C@@H]2COC(N)=O [Compound 6],MIC,[1],2.5 µg/mL
same,ED50,Sarcoma 180 solid tumour,1.2 mg/kg
same,MIC,[2],0.63 µg/mL
same,MIC,[3],2.5 µg/mL
same,MIC,[4],5 µg/mL
same,IC50,HeLa S3 cells,0.0019 µg/mL
same,LD50 at 336 h,Acute toxicity,3 mg/kg
COC1=C(C)C2(OCCO2)C(=O)C2=C1N1C[C@@H]3N[C@@H]3[C@]1(OC)[C@@H]2COC(N)=O [Compound 7],MIC,[1],10 µg/mL
same,MIC,[2],5 µg/mL
same,MIC,[3],10 µg/mL
same,MIC,[4],2.5 µg/mL
same,IC50,HeLa S3 cells,0.085 µg/mL
CCCCC/C=C\C/C=C\CCCCCCCC(=O)OC1=C(C)C2(OCCO2)C(=O)C2=C1N1C[C@@H]3N[C@@H]3[C@]1(OC)[C@@H]2COC(N)=O [Compound 10],ED50,Sarcoma 180 solid tumour,1.9 mg/kg
same,IC50,HeLa S3 cells,0.0026 µg/mL
same,LD50 at 336 h,Acute toxicity,4.2 mg/kg
CCCCCCCC(=O)OC1=C(C)C2(OCCO2)C(=O)C2=C1N1C[C@@H]3N[C@@H]3[C@]1(OC)[C@@H]2COC(N)=O [Compound 11],ED50,Sarcoma 180 solid tumour,0.77 mg/kg
same,IC50,HeLa S3 cells,0.01 µg/mL
same,LD50 at 336 h,Acute toxicity,3.1 mg/kg
CO[C@@]12[C@H](COC(N)=O)C3=C(C(OC(=O)C(C)(C)C)=C(C)C4(OCCO4)C3=O)N1C[C@@H]1N[C@@H]12 [Compound 12],IC50,HeLa S3 cells,0.53 µg/mL
